Results from patent publication US11415576B2, “Method for measurement of vitamin D” (Roche Diagnostics Operations, Inc., priority 2014, dated 2022).
Each block holds one compound with its values, some of them ahead of it.

Molecular target: T1, ruthenylated Vitamin D-binding protein conjugate (Homo sapiens, UniProt P02774)
T1 sequence (P02774 17-474): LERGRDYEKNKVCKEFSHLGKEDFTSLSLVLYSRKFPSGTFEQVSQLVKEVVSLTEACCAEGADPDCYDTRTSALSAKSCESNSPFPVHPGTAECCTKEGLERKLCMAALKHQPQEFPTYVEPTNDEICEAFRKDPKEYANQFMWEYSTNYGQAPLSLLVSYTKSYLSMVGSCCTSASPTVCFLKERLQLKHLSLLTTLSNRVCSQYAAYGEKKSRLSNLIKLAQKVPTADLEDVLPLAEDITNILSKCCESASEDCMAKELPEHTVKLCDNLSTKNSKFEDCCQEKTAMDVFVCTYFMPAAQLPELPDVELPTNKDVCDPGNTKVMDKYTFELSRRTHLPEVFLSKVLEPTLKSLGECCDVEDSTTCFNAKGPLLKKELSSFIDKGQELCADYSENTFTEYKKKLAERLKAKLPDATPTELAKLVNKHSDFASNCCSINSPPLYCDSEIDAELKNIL
Assay: Elecsys Vitamin D total immunoassay, dilution series in Diluent Universal, without or with blocking reagent

- B/B0 (24 nmoL/L, Reference, without blocking reagent): 67%
- B/B0 (24 nmoL/L, with mAb<24,25(OH)2VitD3> 0.075 mg/mL in R1): 95%
- B/B0 (48 nmoL/L, Reference, without blocking reagent): 53%
- B/B0 (48 nmoL/L, with mAb<24,25(OH)2VitD3> 0.075 mg/mL in R1): 92%
- B/B0 (72 nmoL/L, Reference, without blocking reagent): 37%
- B/B0 (72 nmoL/L, with mAb<24,25(OH)2VitD3> 0.075 mg/mL in R1): 91%
- B/B0 (96 nmoL/L, Reference, without blocking reagent): 32%
- B/B0 (96 nmoL/L, with mAb<24,25(OH)2VitD3> 0.075 mg/mL in R1): 91%
- B/B0 (120 nmoL/L, Reference, without blocking reagent): 26%
- B/B0 (120 nmoL/L, with mAb<24,25(OH)2VitD3> 0.075 mg/mL in R1): 88%
- B/B0 (144 nmoL/L, Reference, without blocking reagent): 25%
- B/B0 (144 nmoL/L, with mAb<24,25(OH)2VitD3> 0.075 mg/mL in R1): 88%
- B/B0 (192 nmoL/L, Reference, without blocking reagent): 21%
- B/B0 (192 nmoL/L, with mAb<24,25(OH)2VitD3> 0.075 mg/mL in R1): 86%
- B/B0 (240 nmoL/L, Reference, without blocking reagent): 18%
- B/B0 (240 nmoL/L, with mAb<24,25(OH)2VitD3> 0.075 mg/mL in R1): 82%
- B/B0 (288 nmoL/L, Reference, without blocking reagent): 15%
- B/B0 (288 nmoL/L, with mAb<24,25(OH)2VitD3> 0.075 mg/mL in R1): 76%
- B/B0 (360 nmoL/L, Reference, without blocking reagent): 13%
- B/B0 (360 nmoL/L, with mAb<24,25(OH)2VitD3> 0.075 mg/mL in R1): 74%
- B/B0 (480 nmoL/L, Reference, without blocking reagent): 11%
- B/B0 (480 nmoL/L, with mAb<24,25(OH)2VitD3> 0.075 mg/mL in R1): 66%
- cross-reactivity of the reference immunoassay (without blocking reagent): showed cross-reactivity
SMILES: C=C1CC[C@H](O)C/C1=C/C=C1\CCC[C@@]2(C)C1CC[C@@H]2[C@H](C)CCC(O)C(C)(C)O (stereo partly shown) [24,25(OH)2VitD3, 24,25-dihydroxyvitamin D3]

SMILES: C=C1CC[C@H](O)C/C1=C/C=C1\CCC[C@]2(C)[C@@H]([C@H](C)CCCC(C)(C)O)CC[C@@H]12 [25(OH)VitD3, 25-hydroxyvitamin D3]
- B/B0 (25 nmoL/L, Reference, without blocking reagent): 81%
- B/B0 (25 nmoL/L, with mAb<24,25(OH)2VitD3> 0.075 mg/mL in R1): 77%
- B/B0 (50 nmoL/L, Reference, without blocking reagent): 59%
- B/B0 (50 nmoL/L, with mAb<24,25(OH)2VitD3> 0.075 mg/mL in R1): 63%
- B/B0 (75 nmoL/L, Reference, without blocking reagent): 44%
- B/B0 (75 nmoL/L, with mAb<24,25(OH)2VitD3> 0.075 mg/mL in R1): 49%
- B/B0 (100 nmoL/L, Reference, without blocking reagent): 37%
- B/B0 (100 nmoL/L, with mAb<24,25(OH)2VitD3> 0.075 mg/mL in R1): 42%
- B/B0 (125 nmoL/L, Reference, without blocking reagent): 30%
- B/B0 (125 nmoL/L, with mAb<24,25(OH)2VitD3> 0.075 mg/mL in R1): 33%
- B/B0 (150 nmoL/L, Reference, without blocking reagent): 27%
- B/B0 (150 nmoL/L, with mAb<24,25(OH)2VitD3> 0.075 mg/mL in R1): 30%
- B/B0 (200 nmoL/L, Reference, without blocking reagent): 22%
- B/B0 (200 nmoL/L, with mAb<24,25(OH)2VitD3> 0.075 mg/mL in R1): 23%
- B/B0 (250 nmoL/L, Reference, without blocking reagent): 18%
- B/B0 (250 nmoL/L, with mAb<24,25(OH)2VitD3> 0.075 mg/mL in R1): 18%
- B/B0 (300 nmoL/L, Reference, without blocking reagent): 16%
- B/B0 (300 nmoL/L, with mAb<24,25(OH)2VitD3> 0.075 mg/mL in R1): 15%
- B/B0 (374 nmoL/L, Reference, without blocking reagent): 14%
- B/B0 (374 nmoL/L, with mAb<24,25(OH)2VitD3> 0.075 mg/mL in R1): 13%
- B/B0 (499 nmoL/L, Reference, without blocking reagent): 11%
- B/B0 (499 nmoL/L, with mAb<24,25(OH)2VitD3> 0.075 mg/mL in R1): 10%
- cross-reactivity of the reference immunoassay (without blocking reagent): showed cross-reactivity
